Test systems include HCC 2998; A498; SW-620; HOP-62; A549; SK-MEL-28; CCRF-CEM; SR; UO-31; Malme-3M; HL-60; HCT-15; UACC-62; SK-MEL-2; SN12C; COLO 205; IGROV-1.
What all share (experiment): NCI tumour cell line growth inhibition, 48 h

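In this assay, cells in 96-well plates receive the compound at five concentrations for 48 hours. Endpoints are linearly interpolated between the surrounding concentrations. At the GI50, growth is halved.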 Activity calls are given as the source filed them. Rule as the data show it: active = GI50 up to about 1.1 µM and inactive = higher.

Consider `Cc1ccc(C)c(N2C(=O)C(=O)C(c3nc4ccccc4o3)C(=O)C2=O)c1`, for which the GI50 with HCC 2998 is > 100 µM (inactive); in the assay with A498, > 100 µM (inactive); in the assay on SW-620, 46.3 µM (inactive); in the assay on HOP-62, > 100 µM (inactive); in the assay on A549 it was > 100 µM (inactive); in the assay with SK-MEL-28 it was 34 µM (inactive). Moreover, the GI50 in the assay with CCRF-CEM was 17 µM (inactive); in the assay with SR it was 28.8 µM (inactive); in the assay on UO-31, > 100 µM (inactive); in the assay on Malme-3M, 49.2 µM (inactive); in the assay with HL-60 it was 17.3 µM (inactive); in the assay with HCT-15 it was 99.5 µM. Moreover, the GI50 in the assay on UACC-62 was 43.9 µM (inactive); with SK-MEL-2, > 100 µM (inactive); in the assay on SN12C, > 100 µM (inactive); in the assay with COLO 205, 32.9 µM (inactive); in the assay on IGROV-1, 35.9 µM (inactive).

Take `Cc1cccc(C2SCc3nc4ccccc4n32)c1` (configuration not stated): the GI50 in the assay on SW-620 is 39.2 µM (inactive); in the assay on HOP-62, 23.6 µM (inactive); with A549, 37 µM (inactive); in the assay with SK-MEL-28 it was 26.1 µM (inactive); in the assay with CCRF-CEM it was 31.8 µM (inactive); in the assay with SR it was 17.1 µM (inactive). Moreover, the GI50 in the assay on Malme-3M is 14.7 µM (inactive); in the assay with HL-60, 6.78 µM (inactive); in the assay on HCT-15, 18.6 µM; in the assay on UACC-62, 27.8 µM (inactive); with SK-MEL-2, 18.5 µM (inactive); in the assay with SN12C, 19.5 µM (inactive). Besides, the results for the GI50 in the assay with COLO 205 and with IGROV-1 were > 10 µM (inactive) and 24.5 µM (inactive), respectively.

For `N#CC(N)(C(=O)C(=O)NCCCNC(=O)C(=O)C(N)(C#N)c1ccc(Cl)cc1)c1ccc(Cl)cc1` (configuration not stated), the GI50 in the assay on HCC 2998, in the assay on A498, with SW-620, in the assay on HOP-62, with A549 and in the assay on SK-MEL-28 was > 100 µM (inactive) throughout. Further, the GI50 in the assay with CCRF-CEM is > 100 µM (inactive); with SR it was > 100 µM (inactive); in the assay with UO-31, > 100 µM (inactive); with Malme-3M it was > 100 µM (inactive); with HL-60, 54.7 µM (inactive); with HCT-15, > 100 µM. Besides, the GI50 in the assay with UACC-62, with SK-MEL-2, in the assay on SN12C, with COLO 205 and in the assay on IGROV-1 was > 100 µM (inactive) throughout.

`CCC1(Cl)C(=O)NC(=O)N(C2CC(O)C(CO)O2)C1N=[N+]=[N-]` (configuration not stated): the GI50 in the assay on HCC 2998, in the assay with A498, with SW-620, in the assay with HOP-62, with A549 and in the assay on SK-MEL-28 was > 100 µM (inactive) throughout. The GI50 in the assay on CCRF-CEM, in the assay with UO-31, with Malme-3M, in the assay on HL-60, in the assay with UACC-62 and in the assay on SK-MEL-2 was > 100 µM (inactive) in each case. Moreover, the GI50 with SN12C, with COLO 205 and with IGROV-1 was > 100 µM (inactive) each time.

Regarding `CC1=CCC2(C#N)CCC1C2=O` (configuration not stated), the GI50 in the assay with A498, with SW-620, with HOP-62, in the assay with A549, in the assay with CCRF-CEM and in the assay with SR was > 100 µM (inactive) in each case. In addition, the GI50 with UO-31 was > 100 µM (inactive); in the assay on Malme-3M it was > 100 µM (inactive); in the assay on HL-60 it was > 100 µM (inactive); in the assay with HCT-15, > 100 µM; in the assay on UACC-62, > 100 µM (inactive); in the assay on SK-MEL-2, > 100 µM (inactive). The GI50 in the assay on SN12C, with COLO 205 and in the assay with IGROV-1 was > 100 µM (inactive) each time.

For the compound `CC1=C2C(=O)C3[C@@H](CCC4=CC(=O)CC[C@@]43C)C2CC[C@]12O[C@@H]1C[C@H](C)CN[C@H]1[C@H]2C` (some centres not stated), the GI50 with HCC 2998 was > 100 µM (inactive); in the assay with A498, 32.3 µM (inactive); in the assay on SW-620 it was 57.9 µM (inactive); in the assay with HOP-62, 16.9 µM (inactive); with A549, 28 µM (inactive); in the assay with SK-MEL-28, 97.1 µM (inactive). Also, the GI50 was 15.9 µM (inactive) in the assay with CCRF-CEM; 17.1 µM (inactive) in the assay on SR; 63.7 µM (inactive) in the assay on UO-31; 12.3 µM (inactive) in the assay with HL-60; 48.8 µM in the assay on HCT-15; 23.4 µM (inactive) with UACC-62. Further, the GI50 in the assay with SK-MEL-2 is 21.1 µM (inactive); in the assay with SN12C, 36.3 µM (inactive); in the assay with COLO 205 it was 73.6 µM (inactive); in the assay on IGROV-1, > 100 µM (inactive).

As for `CCOC(=O)CN(Cc1ccccc1)Cc1c(C(=O)c2ccccc2)c2ccccc2n1C(=O)c1ccccc1`, the GI50 in the assay on HCC 2998, in the assay with A498, with SW-620, with HOP-62, in the assay with A549 and in the assay with SK-MEL-28 was > 100 µM (inactive) throughout. The GI50 in the assay on CCRF-CEM was > 100 µM (inactive); in the assay with SR, 41 µM (inactive); in the assay on UO-31, > 100 µM (inactive); in the assay with Malme-3M, > 100 µM (inactive); in the assay with HCT-15 it was > 100 µM; in the assay on UACC-62, > 100 µM (inactive). Further, the GI50 in the assay with SK-MEL-2, in the assay with SN12C, with COLO 205 and in the assay with IGROV-1 was > 100 µM (inactive) each time.

For the compound `CC/C(CC(=O)CCC(=O)Nc1c(C)cccc1C)=N\NC(=O)NN`, the GI50 with HCC 2998 was > 100 µM (inactive); with A498, > 100 µM (inactive); with SW-620, > 100 µM (inactive); with A549, > 100 µM (inactive); with SK-MEL-28 it was > 10 µM (inactive); in the assay with CCRF-CEM, > 100 µM (inactive). Also, the GI50 was > 100 µM (inactive) with SR; > 100 µM (inactive) in the assay with UO-31; > 100 µM (inactive) in the assay with Malme-3M; > 100 µM (inactive) in the assay on HL-60; > 100 µM with HCT-15; > 100 µM (inactive) with UACC-62. Moreover, the GI50 in the assay on SK-MEL-2, with SN12C, in the assay with COLO 205 and with IGROV-1 was > 100 µM (inactive) each time.

As for `O=NN(CCCl)C(=O)NCc1ccc[n+]([O-])c1`, the GI50 was > 100 µM (inactive) in the assay on HCC 2998; > 100 µM (inactive) with SW-620; 54 µM (inactive) with HOP-62; 93.8 µM (inactive) with A549; > 100 µM (inactive) in the assay with SK-MEL-28; 65.8 µM (inactive) in the assay on CCRF-CEM. Moreover, the GI50 was 33 µM (inactive) in the assay with SR; > 100 µM (inactive) in the assay with Malme-3M; 76.4 µM (inactive) with HL-60; > 100 µM with HCT-15; 11.7 µM (inactive) with UACC-62; > 100 µM (inactive) in the assay on SK-MEL-2. Moreover, the GI50 in the assay on SN12C, in the assay on COLO 205 and in the assay on IGROV-1 was > 100 µM (inactive) throughout.

For `CN(C)C(=O)Nc1c([N+](=O)[O-])cc(C(F)(F)F)cc1[N+](=O)[O-]`, the GI50 is > 100 µM (inactive) in the assay on A498; 32.7 µM (inactive) in the assay with SW-620; > 100 µM (inactive) in the assay on HOP-62; 45 µM (inactive) with A549; > 100 µM (inactive) in the assay with SK-MEL-28; 79.1 µM (inactive) in the assay with CCRF-CEM. The GI50 in the assay on SR is 58.7 µM (inactive); in the assay on UO-31, > 100 µM (inactive); in the assay with HL-60, 19.4 µM (inactive); in the assay on HCT-15, 37.1 µM; in the assay on UACC-62 it was 46.9 µM (inactive); in the assay on SK-MEL-2, 58.7 µM (inactive). For the same compound, the values for the GI50 in the assay with SN12C, in the assay with COLO 205 and in the assay with IGROV-1 were 45.7 µM (inactive), 25 µM (inactive) and > 100 µM (inactive), respectively.

For `CC1=CC(=O)CCC2(C)C1CC[C@@H]2OC=O` (some centres not stated), the GI50 with HCC 2998 is > 100 µM (inactive); in the assay on SW-620 it was > 100 µM (inactive); with HOP-62, 53.6 µM (inactive); in the assay on A549, > 100 µM (inactive); in the assay with SK-MEL-28, > 100 µM (inactive); with CCRF-CEM, > 100 µM (inactive). For the same compound, the GI50 in the assay on SR, with UO-31, in the assay on HL-60, with UACC-62, in the assay with SK-MEL-2 and with SN12C was > 100 µM (inactive) throughout. The GI50 in the assay with COLO 205 and in the assay on IGROV-1 was > 100 µM (inactive) each time.

Turning to `CC1OC(OC2C(OC(=O)[C@]34CCC(C)(C)CC3C3=CCC5[C@@]6(C)C[C@H](O)[C@H](OC7OC(CO)C(O)C(O)C7N)[C@@](C)(C(=O)O)C6CC[C@@]5(C)C3(C)CC4)OCC(O)C2O)C(O)C(O)C1OC1OCC(O)C(O)C1O` (some centres not stated), the GI50 in the assay with HCC 2998, in the assay with A498, in the assay on SW-620, in the assay with HOP-62, in the assay with A549 and with SK-MEL-28 was > 100 µM (inactive) in each case. Moreover, the GI50 in the assay with CCRF-CEM is > 100 µM (inactive); in the assay with UO-31 it was > 100 µM (inactive); with Malme-3M, > 100 µM (inactive); with HL-60, > 100 µM (inactive); in the assay with HCT-15, > 100 µM; with UACC-62, > 100 µM (inactive). Also, the GI50 with SK-MEL-2, with SN12C, in the assay with COLO 205 and with IGROV-1 was > 100 µM (inactive) throughout.

Turning to `COC(=O)c1cc2c3ccccc3n(C(C)=O)c2cn1`, the GI50 was > 100 µM (inactive) in the assay on HCC 2998; > 100 µM (inactive) in the assay with SW-620; 59.6 µM (inactive) with HOP-62; > 100 µM (inactive) in the assay on A549; > 100 µM (inactive) in the assay with SK-MEL-28; 38.8 µM (inactive) with CCRF-CEM. The GI50 was 45.6 µM (inactive) in the assay on SR; > 100 µM (inactive) in the assay on UO-31; > 100 µM (inactive) in the assay on Malme-3M; 35.7 µM (inactive) with HL-60; 68.9 µM with HCT-15; 76.9 µM (inactive) with UACC-62. Besides, the GI50 in the assay with SK-MEL-2 is > 100 µM (inactive); with SN12C, > 100 µM (inactive); with COLO 205, 92.5 µM (inactive); in the assay with IGROV-1, 40.4 µM (inactive).
